Source: article PMC6804193, “Extending the Inhibition Profiles of Coumarin-Based Compounds Against Human Carbonic Anhydrases: Synthesis, Biological, and In Silico Evaluation” (Molecules, 2019)
Read-outs that look alike come from different tables or passages of the source.

Tests used:
Assay in all cases: stopped-flow CO2 hydrase assay
Assay type in all cases: biochemical
hCA IX = molecular target: T1, hCA IX (Homo sapiens, UniProt Q16790)
T1 construct: gene CA9; recombinant, obtained in-house
Description: stopped-flow CO2 hydrase assay on hCA IX

hCA II = molecular target: T2, hCA II (Homo sapiens, UniProt P00918)
T2 construct: gene CA2; recombinant, obtained in-house; cytosolic isoform
Description: stopped-flow CO2 hydrase assay on hCA II

hCA XII [1] = molecular target: T3, hCA XII (Homo sapiens, UniProt O43570); conditions: read-out: KI^* (nM) / hCA II
T3 construct: gene CA12; recombinant, obtained in-house
T3 sequence (O43570 25-354): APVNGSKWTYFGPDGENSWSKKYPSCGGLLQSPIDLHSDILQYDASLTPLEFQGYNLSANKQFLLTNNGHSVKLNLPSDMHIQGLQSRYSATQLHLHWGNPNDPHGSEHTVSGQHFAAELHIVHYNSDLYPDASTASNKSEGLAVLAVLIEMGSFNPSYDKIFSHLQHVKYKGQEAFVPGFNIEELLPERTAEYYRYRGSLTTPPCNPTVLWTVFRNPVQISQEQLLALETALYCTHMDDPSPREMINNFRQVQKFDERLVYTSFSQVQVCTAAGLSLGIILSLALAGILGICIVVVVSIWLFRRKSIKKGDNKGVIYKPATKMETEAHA

hCA I = molecular target: T4, hCA I (Homo sapiens, UniProt P00915)
T4 construct: gene CA1; recombinant, obtained in-house; cytosolic isoform
T4 sequence (P00915 2-261): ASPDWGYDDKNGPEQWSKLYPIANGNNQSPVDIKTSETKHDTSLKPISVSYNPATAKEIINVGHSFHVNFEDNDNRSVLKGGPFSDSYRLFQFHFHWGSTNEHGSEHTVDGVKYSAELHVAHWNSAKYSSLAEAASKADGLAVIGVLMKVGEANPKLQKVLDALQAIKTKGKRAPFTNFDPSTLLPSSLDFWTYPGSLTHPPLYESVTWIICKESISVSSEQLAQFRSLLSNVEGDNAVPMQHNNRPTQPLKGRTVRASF
Description: stopped-flow CO2 hydrase assay on hCA I

hCA XII [2] = molecular target: T3, hCA XII; conditions: read-out: KI^* (nM) / hCAXII
Description: stopped-flow CO2 hydrase assay on hCA XII

[3] = CO2 […], […] Hepes pH […] Na2SO4, […] h preincubation at room temperature (prodrug inhibitors)

| SMILES | Ki (hCA IX) [nM] | Ki (hCA II) [nM] | Ki (hCA XII [1]) [nM] | Ki (hCA I) [nM] | Ki (hCA XII [2]) [nM] | Ki (hCA IX; [3]) [nM] | Ki (hCA II; [3]) [nM] | Ki (hCA XII [2]; [3]) [nM] | Ki (hCA I; [3]) [nM] |
| --- | --- | --- | --- | --- | --- | --- | --- | --- | --- |
| Cc1cc(=O)oc2c(C)c(O)c(C(=O)/C=C/N(C)C)cc12 [compound 10, coumarin 10] | 25.7 | > 10000 | – | > 10000 | 604 | – | – | – | – |
| COc1ccc2occ(C3CC(=O)Oc4ccc(C(C)=O)c(O)c43)c(=O)c2c1 (racemic) [compound 8, 3-(6-Acetyl-5-hydroxy-2-oxochroman-4-yl)-6-methoxy-4H-chromen-4-one] | 175 | > 10000 | > 10000 | > 10000 | – | – | – | – | – |
| O=C(Nc1ccc2oc(=O)ccc2c1)[C@@H]1CSC2c3ccccc3C(=O)N21 (stereo partly drawn) [compound 11, coumarin 11] | 9.4 | > 10000 | – | > 10000 | 591 | – | – | – | – |
| CC(=NO)c1c(OCc2ccc(Cl)cc2)ccc2c(C)cc(=O)oc12 [compound 1, 7-((4-Chlorobenzyl)oxy)-8-(1-(hydroxyimino)ethyl)-4-methyl-2H-chromen-2-one] | – | – | – | – | – | 49.3 | > 10000 | 558 | > 10000 |
| CCOC(=O)CC(C1=Cc2ccccc2OC1)c1oc(CO)cc(=O)c1O (stereo not drawn) [compound 4, Ethyl 3-(2H-chromen-3-yl)-3-(3-hydroxy-6-(hydroxymethyl)-4-oxo-4H-pyran-2-yl) propanoate] | 243 | > 10000 | – | > 10000 | 467 | – | – | – | – |
| COc1ccc(C2CC(=O)Oc3ccc(C(C)=O)c(O)c32)cc1OCCc1ccc2c(c1)CCO2 (racemic) [compound 5, 6-Acetyl-4-(3-(2-(2,3-dihydrobenzofuran-5-yl)ethoxy)-4-methoxyphenyl)-5-hydroxychroman-2-one] | 172 | > 10000 | > 10000 | > 10000 | – | – | – | – | – |

More lines, now with the values ahead:

| Ki (hCA IX) [nM] | Ki (hCA II) [nM] | Ki (hCA XII [1]) [nM] | Ki (hCA I) [nM] | Ki (hCA XII [2]) [nM] | Ki (hCA IX; [3]) [nM] | Ki (hCA II; [3]) [nM] | Ki (hCA XII [2]; [3]) [nM] | Ki (hCA I; [3]) [nM] | SMILES |
| --- | --- | --- | --- | --- | --- | --- | --- | --- | --- |
| 171 | > 10000 | > 10000 | > 10000 | – | – | – | – | – | CCCc1cc2c(=O)c(-c3ccc4c(c3)OCCO4)coc2cc1OCc1cc(=O)oc2cc(C)cc(C)c12 [compound 9, coumarin 9] |
| 133 | > 10000 | > 10000 | > 10000 | – | – | – | – | – | O=c1cc(-c2cc3ccc(O)cc3oc2=O)c2ccc(O)c(O)c2o1 [compound 3, 7,7’,8’-Trihydroxy-2H,2’H-[3,4’-bichromene]-2,2’-dione] |
| 189 | > 10000 | > 10000 | > 10000 | – | – | – | – | – | COc1cc(C2CC(=O)Oc3ccc(C(C)=O)c(O)c32)ccc1O (racemic) [compound 6, 6-Acetyl-5-hydroxy-4-(4-hydroxy-3-methoxyphenyl)chroman-2-one] |
| 139 | > 10000 | > 10000 | > 10000 | – | – | – | – | – | CC(=O)c1ccc2c(c1O)C(c1ccccc1OCc1ccccn1)CC(=O)O2 (racemic) [compound 7, 6-Acetyl-5-hydroxy-4-(2-(pyridin-2-ylmethoxy)phenyl)chroman-2-one] |
| 241 | > 10000 | – | > 10000 | 432 | – | – | – | – | O=C(NN1C(=O)/C(=C/C2=Cc3ccccc3OC2)SC1=S)c1cccnc1 [compound 12, 2H-chromene 12] |
| 85.6 | > 10000 | > 10000 | > 10000 | – | – | – | – | – | Cc1c(O)c(CN(C)C)cc2c(-c3cc4ccccc4oc3=O)cc(=O)oc12 [compound 2, 6’-((Dimethylamino)methyl)-7’-hydroxy-8’-methyl-2H,2’H-[3,4’-bichromene]-2,2’-dione] |
